Source: patent US20120328518A1, “PROSTATE SPECIFIC MEMBRANE ANTIGEN INHIBITORS” (PIRAMAL IMAGING SA, priority 2009, published 2012)
Blank lines part the entries; values can stand above or below the compound they belong to.

Legend:
LNCaP xenografts [1] = test: PET/CT-imaging in LNCaP-tumor bearing mice; type: in vivo
PSMA (FOLH1) = target: T1, PSMA (FOLH1) (Homo sapiens, UniProt Q04609); test: In vitro inhibition of NAALADase activity in LNCaP membrane extracts; type: biochemical; conditions: crude membrane extracts from LNCaP cells; release of [3H]-Glutamate from [3H]NAAG, pH7.4, 30 min at 37° C.; read-out: IC50 with respect to NAALADase activity
T1 construct: protein extracted from the membrane fraction of LNCaP cells; host or cells: LNCaP cells (crude membrane extract)
T1 sequence (Q04609 whole entry): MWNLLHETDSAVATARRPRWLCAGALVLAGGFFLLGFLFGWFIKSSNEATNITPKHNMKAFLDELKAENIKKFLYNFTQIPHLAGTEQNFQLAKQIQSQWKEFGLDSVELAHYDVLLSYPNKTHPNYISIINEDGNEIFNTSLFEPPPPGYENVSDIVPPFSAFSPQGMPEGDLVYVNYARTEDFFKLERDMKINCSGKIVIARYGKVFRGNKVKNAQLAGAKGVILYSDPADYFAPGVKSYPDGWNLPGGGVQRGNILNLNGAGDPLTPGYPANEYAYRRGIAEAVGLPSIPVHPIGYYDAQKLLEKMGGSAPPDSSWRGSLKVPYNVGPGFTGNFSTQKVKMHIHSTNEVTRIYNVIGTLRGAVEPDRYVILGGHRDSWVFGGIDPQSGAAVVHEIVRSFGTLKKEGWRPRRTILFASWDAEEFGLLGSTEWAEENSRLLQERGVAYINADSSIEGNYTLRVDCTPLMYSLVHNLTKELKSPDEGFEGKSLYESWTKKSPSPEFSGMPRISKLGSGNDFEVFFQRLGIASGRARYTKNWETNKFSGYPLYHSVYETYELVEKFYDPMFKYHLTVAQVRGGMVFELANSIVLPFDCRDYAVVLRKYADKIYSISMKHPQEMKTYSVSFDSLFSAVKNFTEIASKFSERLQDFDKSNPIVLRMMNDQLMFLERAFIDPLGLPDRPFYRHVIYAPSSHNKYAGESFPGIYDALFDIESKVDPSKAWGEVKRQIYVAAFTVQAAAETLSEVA
Method: NAALADase activity was assayed essentially as described previously (Slusher B S, Tsai G, Yoo G, Coyle J T. Immunocytochemical localization of the N-acetyl-aspartyl-glutamate hydrolyzing enzyme N-acetylated alpha-linked acidic dipeptidase [NAALADase]. J Comp Neurol 1992; 315:217-229) in crude membrane extracts from LNCaP tissue culture cells (ref ATCC CRL-1740). Briefly, the release of [3H]-Glutamate from [3H] N-acetyl-aspartyl-glutamate (NAAG) in 50 mM Tris-Cl buffer pH7.4 after 30 min at 37° C. was measured using 1-5 μg/ml of protein extracted from the membrane fraction of LNCaP cells; substrate and product were resolved by cation-exchange liquid chromatography.

[2] = Metabolic stability, mouse microsomes (TLC); type: in vitro ADME; conditions: TLC after different timepoints
Method: (§1) Metabolic stability of Example F13 was assessed by incubating F13 in the presence of mouse, rat, and human microsomes and rat hepatocytes. After different timepoints TLC analysis was performed. No metabolism by microsomes or hepatocytes was found.

[3] = Metabolic stability, rat microsomes (TLC); type: in vitro ADME; conditions: TLC after different timepoints
Method: as §1

LNCaP xenografts [4] = test: PET/CT-imaging in LNCaP-tumor bearing mice; type: in vivo; conditions: 50-70 min after injection of ~10 MBq
Method: Example F13 was imaged on a microPET/CT (Inveon, Siemens) in LNCaP tumor-bearing mice 50-70 min after injection of ˜10 MBq radiotracer Example F13.
Example F14 was imaged on a microPET/CT (Inveon, Siemens) in LNCaP tumor-bearing mice 50-70 min after injection of ˜10 MBq radiotracer Example F14.

[5] = Metabolic stability, human microsomes (TLC); type: in vitro ADME; conditions: TLC after different timepoints
Method: as §1

[6] = Biodistribution in LNCaP bearing nude mice; type: in vivo
Method: Male nude mice were implanted subcutaneously with 10 million LNCaP tumor cells, which were freshly expanded in a sterilized solution phosphate-buffered saline (PBS, pH 7.4). 4 weeks after inoculation the mice were injected into the tail vein with 150 kBq of radiolabeled Example F13, diluted in PBS (total injected volume 100 μl). At 30, 60, 120, and 180 min intervals, the mice (in groups of 3) were sacrificed and the organs of interest were collected, rinsed of excess blood, weighed and counted in a gamma-counter.

[7] = Metabolic stability, rat hepatocytes (TLC); type: in vitro ADME; conditions: TLC after different timepoints
Method: as §1

[8] = Stability in human plasma in vitro (TLC); type: in vitro ADME
Method: Stability of Example F13 was investigated in human plasma in vitro. The Example was analyzed by TLC at different time points. […] After two hours, 82% of Example F13 was still intact.

[9] = 110-130 min after injection of ~10 MBq
[10] = 0.5 h after injection of 150 kBq into tail vein
[11] = 1.0 h after injection of 150 kBq into tail vein
[12] = 2.0 h after injection of 150 kBq into tail vein
[13] = 3.0 h after injection of 150 kBq into tail vein

- IC50 (PSMA (FOLH1)): 7 nM
SMILES: O=C(O)[C@H](C[C@H](F)C(=O)O)CP(=O)(O)O [Example F10, (2S,4S)-2-Fluoro-4-(phosphonomethyl)pentanedioic acid]

- metabolism by microsomes [2]: No metabolism
- metabolism by microsomes [3]: No metabolism
- background activity in PET/CT image (LNCaP xenografts [4]): very low background activity
- kidney and bladder uptake in PET/CT image (LNCaP xenografts [4]): strong kidney and bladder uptake
- renal clearance (LNCaP xenografts [4]): rapid renal clearance
- metabolism by microsomes [5]: No metabolism
- % Dosis/g adrenals [6, 10]: 3.31 % Dosis/g
- % Dosis/g blood [6, 10]: 0.79 % Dosis/g
- % Dosis/g bone [6, 10]: 2.61 % Dosis/g
- % Dosis/g brain [6, 10]: 0.05 % Dosis/g
- % Dosis/g fat [6, 10]: 0.78 % Dosis/g
- % Dosis/g heart [6, 10]: 0.53 % Dosis/g
- % Dosis/g intestine [6, 10]: 0.23 % Dosis/g
- % Dosis/g kidney [6, 10]: 105.78 % Dosis/g
- % Dosis/g liver [6, 10]: 0.40 % Dosis/g
- % Dosis/g lung [6, 10]: 1.12 % Dosis/g
- % Dosis/g muscle [6, 10]: 0.26 % Dosis/g
- % Dosis/g pankreas [6, 10]: 0.45 % Dosis/g
- % Dosis/g prostate [6, 10]: 0.69 % Dosis/g
- % Dosis/g skin [6, 10]: 0.85 % Dosis/g
- % Dosis/g spleen [6, 10]: 3.00 % Dosis/g
- % Dosis/g stomach [6, 10]: 0.51 % Dosis/g
- % Dosis/g tail [6, 10]: 4.69 % Dosis/g
- % Dosis/g testes [6, 10]: 0.76 % Dosis/g
- % Dosis/g thyroid [6, 10]: 0.68 % Dosis/g
- % Dosis/g tumor [6, 10]: 5.31 % Dosis/g
- % Dosis/g adrenals [6, 11]: 2.46 % Dosis/g
- % Dosis/g blood [6, 11]: 0.33 % Dosis/g
- % Dosis/g bone [6, 11]: 2.53 % Dosis/g
- % Dosis/g brain [6, 11]: 0.06 % Dosis/g
- % Dosis/g fat [6, 11]: 0.36 % Dosis/g
- % Dosis/g heart [6, 11]: 0.27 % Dosis/g
- % Dosis/g intestine [6, 11]: 0.23 % Dosis/g
- % Dosis/g kidney [6, 11]: 105.40 % Dosis/g
- % Dosis/g liver [6, 11]: 0.42 % Dosis/g
- % Dosis/g lung [6, 11]: 0.49 % Dosis/g
- % Dosis/g muscle [6, 11]: 0.21 % Dosis/g
- % Dosis/g pankreas [6, 11]: 0.22 % Dosis/g
- % Dosis/g prostate [6, 11]: 0.70 % Dosis/g
- % Dosis/g skin [6, 11]: 0.76 % Dosis/g
- % Dosis/g spleen [6, 11]: 2.48 % Dosis/g
- % Dosis/g stomach [6, 11]: 0.26 % Dosis/g
- % Dosis/g tail [6, 11]: 2.37 % Dosis/g
- % Dosis/g testes [6, 11]: 0.50 % Dosis/g
- % Dosis/g thyroid [6, 11]: 0.45 % Dosis/g
- % Dosis/g tumor [6, 11]: 4.08 % Dosis/g
- % Dosis/g adrenals [6, 12]: 0.51 % Dosis/g
- % Dosis/g blood [6, 12]: 0.07 % Dosis/g
- % Dosis/g bone [6, 12]: 1.52 % Dosis/g
- % Dosis/g brain [6, 12]: 0.04 % Dosis/g
- % Dosis/g fat [6, 12]: 0.17 % Dosis/g
- % Dosis/g heart [6, 12]: 0.06 % Dosis/g
- % Dosis/g intestine [6, 12]: 0.28 % Dosis/g
- % Dosis/g kidney [6, 12]: 41.15 % Dosis/g
- % Dosis/g liver [6, 12]: 0.24 % Dosis/g
- % Dosis/g lung [6, 12]: 0.17 % Dosis/g
- % Dosis/g muscle [6, 12]: 0.12 % Dosis/g
- % Dosis/g pankreas [6, 12]: 0.07 % Dosis/g
- % Dosis/g prostate [6, 12]: 0.66 % Dosis/g
- % Dosis/g skin [6, 12]: 0.29 % Dosis/g
- % Dosis/g spleen [6, 12]: 0.42 % Dosis/g
- % Dosis/g stomach [6, 12]: 0.11 % Dosis/g
- % Dosis/g tail [6, 12]: 1.73 % Dosis/g
- % Dosis/g testes [6, 12]: 0.15 % Dosis/g
- % Dosis/g thyroid [6, 12]: 0.18 % Dosis/g
- % Dosis/g tumor [6, 12]: 3.13 % Dosis/g
- % Dosis/g adrenals [6, 13]: 0.573 % Dosis/g
- % Dosis/g blood [6, 13]: 0.08 % Dosis/g
- % Dosis/g bone [6, 13]: 2.12 % Dosis/g
- % Dosis/g brain [6, 13]: 0.03 % Dosis/g
- % Dosis/g fat [6, 13]: 0.35 % Dosis/g
- % Dosis/g heart [6, 13]: 0.08 % Dosis/g
- % Dosis/g intestine [6, 13]: 1.03 % Dosis/g
- % Dosis/g kidney [6, 13]: 46.96 % Dosis/g
- % Dosis/g liver [6, 13]: 0.35 % Dosis/g
- % Dosis/g lung [6, 13]: 0.16 % Dosis/g
- % Dosis/g muscle [6, 13]: 0.06 % Dosis/g
- % Dosis/g pankreas [6, 13]: 0.09 % Dosis/g
- % Dosis/g prostate [6, 13]: 0.53 % Dosis/g
- % Dosis/g skin [6, 13]: 0.24 % Dosis/g
- % Dosis/g spleen [6, 13]: 0.41 % Dosis/g
- % Dosis/g stomach [6, 13]: 0.20 % Dosis/g
- % Dosis/g tail [6, 13]: 2.52 % Dosis/g
- % Dosis/g testes [6, 13]: 0.20 % Dosis/g
- % Dosis/g thyroid [6, 13]: 0.30 % Dosis/g
- % Dosis/g tumor [6, 13]: 4.54 % Dosis/g
- metabolism by hepatocytes [7]: No metabolism
- compound still intact in human plasma ([8]; after two hours, TLC): 82%
SMILES: O=C(O)[C@H](C[C@H]([18F])C(=O)O)CP(=O)(O)O [Example F13, (2S,4S)-2-[^18F]-Fluoro-4-(phosphonomethyl)pentanedioic acid]
- tumor-contrast in PET/CT image (LNCaP xenografts [4]): High tumor-contrast
- release of free fluoride upon incubation in human plasma ([8]; TLC at different time points): did not show increased release of free fluoride

- background activity in PET/CT image (LNCaP xenografts [4]): very low background activity
- kidney and bladder uptake in PET/CT image (LNCaP xenografts [4]): strong kidney and bladder uptake
- renal clearance (LNCaP xenografts [4]): rapid renal clearance
SMILES: O=C(O)[C@H](C[C@@H]([18F])C(=O)O)CP(=O)(O)O [Example F14, (2R,4S)-2-[^18F]-Fluoro-4-(phosphonomethyl)pentanedioic acid]
- tumor-contrast in PET/CT image (LNCaP xenografts [4]): High tumor-contrast

Further lines, the compound ahead of its results:

SMILES: O=C(O)C(F)CC(CP(=O)(O)O)C(=O)O (racemic) [Example F3, rac-2-Fluoro-4-(phosphonomethyl)pentanedioic acid]
- blocking of tumor-contrast of radiotracer Example F15a (LNCaP xenografts [1]; 22 μg non-radioactive Example F3 with ~10 MBq Example F15a, 110-130 min): effectively blocked
- IC50 (PSMA (FOLH1)): 30 nM

SMILES: O=C(O)C([18F])CC(CP(=O)(O)O)C(=O)O (racemic) [Example F15a, rac-2-[^18F]-Fluoro-4-(phosphonomethyl)pentanedioic acid]
- background activity in PET/CT image (LNCaP xenografts [1]; [9]): very low background activity
- kidney and bladder uptake in PET/CT image (LNCaP xenografts [1]; [9]): strong kidney and bladder uptake
- renal clearance (LNCaP xenografts [1]; [9]): rapid renal clearance
- tumor-contrast in PET/CT image (LNCaP xenografts [1]; [9]): High tumor-contrast

SMILES: O=C(O)[C@H](C[C@@H](F)C(=O)O)CP(=O)(O)O [Example F8, (2R,4S)-2-Fluoro-4-(phosphonomethyl)pentanedioic acid]
- IC50 (PSMA (FOLH1)): 14 nM
